From patent US20240279618A1, “RECEPTOR TYROSINE KINASE AGONIST, COMPOSITION FOR CELL CULTURE MEDIUM, AND […] MAINTENANCE COMPOSITION” (SEKISUI CHEMICAL CO., LTD., priority 2021, published 2024)

B1: #1-L4-#1: dimer of VHH #1 with linker L4 (GSEGKSSGSGSESKST), SEQ ID NO: 23 (protein)
VHH: QLQLVESGGGSVQAGGSLRLSCAASRSLSRFNVWTWYRQAPVKQRELVASITKSGDTNYAESVKGRFIISRDDDKNTVYLQMNNLKSEDTGIYYCAGSYYSGSYLYPSPGGFSVWGQGTQVTVSSGSEGKSSGSGSESKSTQLQLVESGGGSVQAGGSLRLSCAASRSLSRFNVWTWYRQAPVKQRELVASITKSGDTNYAESVKGRFIISRDDDKNTVYLQMNNLKSEDTGIYYCAGSYYSGSYLYPSPGGFSVWGQGTQVTVSS
modifications: #1-L4-#1

Tests used:
Type in all cases: cell-based
[1] = test system: human bone marrow-derived MSC; test: MSC: evaluation of bone differentiation induction (Alizarin Red); conditions: MSC after 3 passages with 20 ng/ml additive, 14 days induction
Description: A third passage was performed in a CellBIND® 24-well transparent multi-well plate, and then at a time of reaching 80% to 90% confluence, medium exchange was performed in MesenCult Stem Cell Osteogenic Differentiation Medium (PromoCell, C/N: C-28013) which is a medium for differentiation induction. Furthermore, for the cells as a negative control, D-MEM (10% FBS or 20% FBS) which is a culture medium was used for the medium exchange. The medium exchange was carried out every 2 to 4 days.
After 14 days from seeding, a 4% paraformaldehyde/phosphate buffer solution was added thereto at 500 μL/well, and the cells were left to stand for 2 hours or longer. After the immobilization, purified water was added thereto at 500 μL/well. 500 μL of an Alizarin Red solution (PG Research Co., Ltd., ARD-SET) was added to each well, which was left to stand at room temperature for 30 minutes. The Alizarin Red solution was removed, and washing was performed three times or more with purified water until the washing water became transparent. The water was completely removed, and the coating film was dried, and observed with a microscope to acquire an image. 500 μL of a calcifide nodule dissolution solution (PG Research Co., Ltd., ARD-SET) was added into the well and distributed for 10 minutes to elute the dye. 100 μL of the eluate was transferred to a 96-well plate and the absorbance at 450 nm was measured. […]

[2] = test system: mouse fibroblast cell line NIH/3T3; test: Promotion of fibroblast growth by VHH (homodimer), cell growth assay; conditions: NIH/3T3, serum-free, 2 days, 2-fold dilution series, 4-parameter fit; read-out: EC50 of the growth of cultured fibroblasts
Description: A mouse fibroblast cell line NIH/3T3 was used as a fibroblast. A mouse fibroblast cell line NIH/3T3 was obtained from ECACC through a domestic agent, subjected to extended culture, then cryopreserved at −80° C. using CellBanker1 plus (manufactured by ZENOAQ), and used. […]
The cell growth assay for bFGF was performed according to the following procedure. […] The plate was further left to stand for 8 minutes, and then the luminescence in each well was measured with a Synergy HTX plate reader (manufactured by BioTek) with a sensitivity set (Gain) of 200 and a measurement time of 1 s/well. […]
The measurement was performed at three points at each concentration of the test substance, and the conditions were set such that for the measurement at a single concentration, 100 ng/mL of bFGF was set as a positive control and a condition of no addition was set as a negative control. […] The EC50 measurement data were fitted to 4-parameter fit according to an ordinary method by control software attached to a plate reader, and an EC50 value was calculated.

[3] = test system: NIH3T3 (mouse fibroblast cell line); test: Inhibition of growth factor activity of VHH homodimer by FGFR antagonist; conditions: 10 or 100 ng/mL test substance, 20 nM NVP-BGJ398
Description: The cell growth assay for FGF2 was performed according to the following procedure. On Day 1, a suspension including 2.5×10^4 cells/mL of NIH3T3 in DMEM of 10% CS and PS(+) was created, seeded on a CulturPlate-96 (White Opaque 96-well Microplate, manufactured by Perkin Elmer, Cat #6005680) at 100 μL/well, and cultured in a 5% CO2 incubator at 37° C. for 16 to 24 hours. On Day 2, the medium was replaced with FGF2 (PeproTech Cat #AF-100-18B) or serum-free PS(+) DMEM including various test substances, and the cells were further cultured for 2 days. On Day 4, the 96-well plate was left at room temperature for 30 minutes, and then 100 μL of Cell Titer Glo 2.0 Reagent (manufactured by Promega Corporation) at room temperature was added to each well, followed by stirring at 500 rpm for 2 minutes using a plate mixer. The plate was further left to stand for 8 minutes, and then the luminescence in each well was measured with a Synergy HTX plate reader (manufactured by BioTek) with a sensitivity set (Gain) of 200 and a measurement time of 1 s/well.
The addition amounts of FGF2 and #1L4 (hereinafter also referred to as “#1-L4-#1”), which is a dimer of VHH #1 with a linker […], were each 10 or 100 ng/mL.

[4] = test system: mouse fibroblast cell line NIH/3T3; test: Inhibition of growth factor activity of VHH homodimer by FGFR inhibitor (fibroblasts); conditions: 10 and 100 ng/ml test substance plus FGFR kinase inhibitor
Excerpt: Promotion of Fibroblast Growth by VHH (Homodimer)” described above.
It was examined whether the cell growth activities of bFGF and the single-domain antibody were inhibited by NPV-BGJ398 which is an FGFR kinase inhibitor.

Molecule	bone differentiation (Alizarin Red) [1]	EC50 [2] [nM]	cell growth activity with addition of NVP-BGJ398 [3]	cell growth with addition of NPV-BGJ398 [4]
FGF2: fibroblast growth factor (basic), human, recombinant (154aa), positive control; SEQ ID NO: 58 [reference compound]	Differentiation was similarly recognized	5.1	inhibited	suppressed cell growth
B1	Differentiation was similarly recognized	11.6	inhibited	suppressed cell growth
